In patent US9149038B2, “4-amino-6-(heterocyclic)picolinates and 6-amino-2-(heterocyclic)pyrimidine-4-carboxylates and their use as herbicides” (Dow AgroSciences LLC, priority 2013, dated 2015):
Like-named read-outs stand apart in the source and are kept apart here.

Tested on: Wheat and Barley and weed species
Assay: Post-Emergent Test III: postemergent herbicidal activity in wheat and barley, visual rating after 21 d and probit GR20/GR50/GR80/GR90 (Tables 9-13)
Assay type: in vivo
Details: for pest or weed control at 17.5 g/ha / pest or weed control at 35 g/ha / pest or weed control at 70 g/ha: post-emergence, 504 h
Method in brief: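 Greenhouse plants (~18/17 °C, 14 h photoperiod) at second–third true leaf stage sprayed at 187 L/ha with a high rate and ½× to 1/16× serial dilutions. Visual injury 0–100% versus solvent-blank controls scored at 21 d; GR20, GR50, GR80 and GR90 derived by probit analysis across rates.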

For `COC(=O)c1nc(-c2cc3c(cc2F)OC(F)(F)O3)cc(N)c1Cl` [Compound 32], the “GR50 ALOMY” value (ALOMY black-grass (Alopecurus myosuroides), growth reduction of 50%, probit analysis) was 5 g ai/ha, the “GR80 ALOMY” value (ALOMY black-grass (Alopecurus myosuroides), growth reduction of 80%, probit analysis) was 12 g ai/ha and the “GR90 ALOMY” value (ALOMY black-grass (Alopecurus myosuroides), growth reduction of 90%, probit analysis) was 18 g ai/ha. For the same compound, the “Visual Growth Reduction (%) 21 Days After Application AVEFA” value (AVEFA wild oat (Avena fatua), 17.5 g ai/ha) was “E (45-59)”, the “Visual Growth Reduction (%) 21 Days After Application AVEFA” value (AVEFA wild oat (Avena fatua), 35 g ai/ha) was “D (60-74)” and the “Visual Growth Reduction (%) 21 Days After Application AVEFA” value (AVEFA wild oat (Avena fatua), 70 g ai/ha) was “D (60-74)”. For the same compound, the “GR50 AVEFA” value (AVEFA wild oat (Avena fatua), growth reduction of 50%, probit analysis) was 31 g ai/ha, the “GR80 AVEFA” value (AVEFA wild oat (Avena fatua), growth reduction of 80%, probit analysis) was greater than 70 g ai/ha and the “GR90 AVEFA” value (AVEFA wild oat (Avena fatua), growth reduction of 90%, probit analysis) was greater than 70 g ai/ha. For the same compound, the “GR20 HORVS” value (HORVS barley, spring (crop), growth reduction of 20%, probit analysis) was 3 g ai/ha, the pest or weed control at 17.5 g/ha (Hordeum vulgare, HORVS barley, spring (crop), 17.5 g ai/ha, read-out: Visual Growth Reduction (%) 21 Days After Application HORVS) was 45 to 59% and the pest or weed control at 35 g/ha (Hordeum vulgare, HORVS barley, spring (crop), 35 g ai/ha, read-out: Visual Growth Reduction (%) 21 Days After Application HORVS) was 60 to 74%. The pest or weed control at 70 g/ha (Hordeum vulgare, HORVS barley, spring (crop), 70 g ai/ha, read-out: Visual Growth Reduction (%) 21 Days After Application HORVS) was 60 to 74%, the “GR50 LOLSS” value (LOLSS ryegrass, growth reduction of 50%, probit analysis) was 54 g ai/ha and the “GR80 LOLSS” value (LOLSS ryegrass, growth reduction of 80%, probit analysis) was greater than 70 g ai/ha. For the same compound, the “GR90 LOLSS” value (LOLSS ryegrass, growth reduction of 90%, probit analysis) was greater than 70 g ai/ha, the “Visual Growth Reduction (%) 21 Days After Application PHAMI” value (PHAMI lesser canary grass (Phalaris minor), 17.5 g ai/ha) was “G (0-29)” and the “Visual Growth Reduction (%) 21 Days After Application PHAMI” value (PHAMI lesser canary grass (Phalaris minor), 35 g ai/ha) was “F (30-44)”. For the same compound, the “Visual Growth Reduction (%) 21 Days After Application PHAMI” value (PHAMI lesser canary grass (Phalaris minor), 70 g ai/ha) was “E (45-59)”, the “GR50 PHAMI” value (PHAMI lesser canary grass (Phalaris minor), growth reduction of 50%, probit analysis) was 65 g ai/ha and the “GR80 PHAMI” value (PHAMI lesser canary grass (Phalaris minor), growth reduction of 80%, probit analysis) was greater than 70 g ai/ha. The “GR90 PHAMI” value (PHAMI lesser canary grass (Phalaris minor), growth reduction of 90%, probit analysis) was greater than 70 g ai/ha, the “GR20 TRZAS” value (TRZAS wheat, spring (crop), growth reduction of 20%, probit analysis) was 1 g ai/ha and the pest or weed control at 17.5 g/ha (Triticum aestivum, TRZAS wheat, spring (crop), 17.5 g ai/ha, read-out: Visual Growth Reduction (%) 21 Days After Application TRZAS) was 60 to 74%. It also gave a pest or weed control at 35 g/ha (Triticum aestivum, TRZAS wheat, spring (crop), 35 g ai/ha, read-out: Visual Growth Reduction (%) 21 Days After Application TRZAS) of 60 to 74%, a pest or weed control at 70 g/ha (Triticum aestivum, TRZAS wheat, spring (crop), 70 g ai/ha, read-out: Visual Growth Reduction (%) 21 Days After Application TRZAS) of 75 to 84% and a pest or weed control at 17.5 g/ha (ALOMY black-grass (Alopecurus myosuroides), 17.5 g ai/ha, read-out: Visual Growth Reduction (%) 21 Days After Application ALOMY) of 85 to 94%. The pest or weed control at 35 g/ha (ALOMY black-grass (Alopecurus myosuroides), 35 g ai/ha, read-out: Visual Growth Reduction (%) 21 Days After Application ALOMY) was 95 to 100%, the pest or weed control at 70 g/ha (ALOMY black-grass (Alopecurus myosuroides), 70 g ai/ha, read-out: Visual Growth Reduction (%) 21 Days After Application ALOMY) was 95 to 100% and the pest or weed control at 17.5 g/ha (LOLSS ryegrass, 17.5 g ai/ha, read-out: Visual Growth Reduction (%) 21 Days After Application LOLSS) was 0 to 29%. The pest or weed control at 35 g/ha (LOLSS ryegrass, 35 g ai/ha, read-out: Visual Growth Reduction (%) 21 Days After Application LOLSS) was 30 to 44% and the pest or weed control at 70 g/ha (LOLSS ryegrass, 70 g ai/ha, read-out: Visual Growth Reduction (%) 21 Days After Application LOLSS) was 60 to 74%.
